These results are taken from US7915270B2, “Oxazole ketones as modulators of fatty acid amide hydrolase” (The Scripps Research Institute, priority 2006, dated 2011).

The subject of one series is spasticity. As to conditions: Baker 2001; cited from earlier work.
For another series, the system named is neuropathic pain. As to conditions: rats; WO 02/087569; cited from earlier work.
For series [1], the system named is acute thermal nociception. As to conditions: rats; WO 02/087569; cited from earlier work.
Series [2] can be described thus: Solubility determination in water. It counts as physicochemical. As to conditions: thermodynamic from solid; in water at 5, 1 and 0.1 mg/mL; pH of resulting solutions 7-8.5. As to the method:
Physical Chemical Properties
Solubility determinations were made by mixing the test compound in water at 5 mg/mL, 1 mg/mL, and 0.1 mg/mL concentrations. The pH of the resulting solutions was 7-8.5.

A short description of series [3]: Pharmacokinetic testing, intravenous bolus in rats. As to conditions: rat, plasma, 2 mg/kg, male Sprague Dawley rats, 1 mg/mL in 2 mL/kg. It counts as in vivo. As to the method:
For each test compound, two male Sprague Dawley Rats (Charles River Laboratories; approx. 300 g body weight) were used. Animals were individually housed, provided food and water ad libitum, and were maintained on a 12 h light and dark cycle. Animals received from the vendor were surgically cannulated by the vendor with right jugular vein and left carotid artery catheters. Animals were acclimatized for at least 5 days after receipt from the vendor prior to investigations.
Animals received a bolus intravenous dose of the test compound at a dose of 1 mg/mL in a volume of 2 mL/kg via the right jugular vein catheter. The intravenous dosing solution was prepared in 55% pharmasolve, 20% cremophor, and […] physiological saline, or 100% saline adjusted to pH 8.0.
Following intravenous administration, blood was collected (sampled 0.35 mL per time point from the left carotid artery catheter) at 0.083, 0.25, 0.5, 1, 2, 4, and 6 h post-dose. Blood was collected into tubes containing EDTA and stored at 4° C. for not more than 2 h. The samples were centrifuged at 10,000 rpm in a micro-centrifuge for 5 min to obtain a plasma fraction. The plasma was stored at between −20 and −80° C. until processed for analysis. These samples were analyzed by LC-MS/MS to determine the plasma level of the compound.
Plasma level vs. time plots were created and WinNonlin (Pharsight Corp.) was used to analyze the data. A non-compartmental pharmacokinetic model was used to determine the pharmacokinetic parameters, including clearance, volume of distribution (Vd), and half-life (t1/2).

Series [4] deals with thermal nociception. As to conditions: cited from earlier work.
A further series has as its target T1, FAAH (Homo sapiens, UniProt O00519).
T1 sequence (O00519 1-579): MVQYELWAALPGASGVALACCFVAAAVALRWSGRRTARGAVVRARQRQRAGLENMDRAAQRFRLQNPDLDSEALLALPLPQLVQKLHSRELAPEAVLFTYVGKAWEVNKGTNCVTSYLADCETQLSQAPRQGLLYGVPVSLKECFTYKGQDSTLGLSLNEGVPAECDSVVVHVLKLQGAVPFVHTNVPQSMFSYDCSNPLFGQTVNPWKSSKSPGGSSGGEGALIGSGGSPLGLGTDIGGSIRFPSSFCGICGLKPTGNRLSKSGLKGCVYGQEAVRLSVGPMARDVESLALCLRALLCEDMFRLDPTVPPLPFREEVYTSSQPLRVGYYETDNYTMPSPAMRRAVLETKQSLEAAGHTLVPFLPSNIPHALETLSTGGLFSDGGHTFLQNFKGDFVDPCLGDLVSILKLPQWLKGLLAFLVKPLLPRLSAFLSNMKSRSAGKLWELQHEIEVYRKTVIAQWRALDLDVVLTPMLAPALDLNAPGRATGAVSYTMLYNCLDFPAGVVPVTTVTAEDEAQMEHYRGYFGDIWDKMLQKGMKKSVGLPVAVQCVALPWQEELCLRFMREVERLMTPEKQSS
As to conditions: reported; cited from earlier work.

Series [5] has as its system thermal nociception. As to conditions: rats; WO 04/033652; cited from earlier work.
A further series concerns anxiety. As to conditions: rats; Kathuria 2003; cited from earlier work.
The conditions of series [6]: rat; Kathuria 2003; cited from earlier work.

As to `CCCCCCCCCCCCCCCCS(=O)(=O)F` [AM374], the “spasticity in CREAE mice” value with spasticity is listed as “significantly reduce spasticity”.
For the compound `Cc1nc(-c2ccccc2)c(-c2ccccc2)n1CCCCCCNC(=O)Oc1ccccc1F` [BMS-1], the “analgesic effect in the Chung spinal nerve ligation model” value in the series on neuropathic pain is given as “analgesic effect”. In addition, the “analgesic effect in the Hargraves test” value in [1] is “analgesic effect”.
Consider `O=C(CCCCCCc1ccccc1)c1ncc(-c2ccccn2)o1` [Comp. Ex. 1, 7-Phenyl-1-(5-pyridin-2-yl-oxazol-2-yl)-heptan-1-one, reference compound], for which, in series [2], the solubility (in general, the concentration that dissolves in the medium under given conditions) was below 100 µg/mL. In series [3], the Vd (in general, a proportionality between amount in the body and measured concentration, not a real space) is 27.3 L/kg; the clearance (usually a measure of how efficiently the substance is removed, as volume per time) is 98.3 mL/min/kg; the half-life (usually how long it takes for the measured level to halve) is 3.23 h.
For `O=C(CCCCCCc1ccccc1)c1ncc(-c2ccco2)o1` [Comp. Ex. 2, 1-(5-Furan-2-yl-oxazol-2-yl)-7-phenyl-heptan-1-one, reference compound], in that order: below 100 µg/mL, 22.9 L/kg, 63.3 mL/min/kg and 3.49 h.
For the compound `O=C(CCCCCCc1ccccc1)c1ncc(-c2ccccn2)o1` [OL-135], the “analgesic activity in the hot plate test” value with thermal nociception [4] (rats, WO 04/033652) was “analgesic activity”. Also, the “inhibition of FAAH” value at FAAH is “potent inhibitor”. For the same compound, the “analgesic activity in the tail emersion test” value with thermal nociception [5] is given as “analgesic activity”.
Take `NC(=O)c1cccc(-c2cccc(OC(=O)NC3CCCCC3)c2)c1` [URB-597]: the “efficacy in the zero plus maze model of anxiety” value with anxiety is recorded as “efficacy”. The “analgesic efficacy in the hot plate test” value in the series on thermal nociception [4] (rat, Kathuria 2003) is “analgesic efficacy”. Besides, the “analgesic efficacy in the formalin test” value in [6] is “analgesic efficacy”.
